Here are results for 25 molecules from patent US20150148311A1, “NON-SYSTEMIC TGR5 AGONISTS” (Ardelyx, Inc., priority 2011, published 2015).

One assay addresses T1, human TGR5 (Homo sapiens, UniProt Q8TDU6).
T1 construct: expressed in transfected cells
T1 sequence (Q8TDU6 1-330): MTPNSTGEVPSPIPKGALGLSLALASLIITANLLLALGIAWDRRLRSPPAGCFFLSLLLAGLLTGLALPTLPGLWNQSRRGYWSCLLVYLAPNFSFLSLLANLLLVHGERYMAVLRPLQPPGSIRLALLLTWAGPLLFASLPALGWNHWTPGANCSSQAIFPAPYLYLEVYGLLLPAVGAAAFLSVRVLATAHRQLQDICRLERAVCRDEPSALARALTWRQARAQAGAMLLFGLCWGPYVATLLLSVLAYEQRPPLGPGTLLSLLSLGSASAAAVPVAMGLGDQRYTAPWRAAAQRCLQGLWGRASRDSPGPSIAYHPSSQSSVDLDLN
In words: Cell-based TGR5 assay, HEK293 cells stably expressing human TGR5, cAMP by HTRF. As to conditions: HEK293 cells stably expressing human TGR5, 30 min at 37 C, 0.05 nM to 10 μM, read-out: pEC50 Human TGR5 (converted). The method in brief: (§1)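 cAMP HTRF read-out, converted to concentration via standard curve, after a 30 min, 37 °C compound exposure in HBSS with 10 mM HEPES pH 7.4 and 0.5 mM IBMX, compounds serially diluted 3-fold from 10 mM DMSO stock then 100-fold. Cells: stable human TGR5 HEK293, or NCI-H716 expressing TGR5 endogenously.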

Assay [1] concerns the target T2, endogenously expressed TGR5 in NCI H716 (Homo sapiens, UniProt Q8TDU6).
T2 construct: human caecum carcinoma cell line NCI-H716 which endogenously expresses human TGR5; endogenous in cells; host or cells: NCI-H716
T2 sequence (Q8TDU6 1-330): T1 sequence (Q8TDU6 1-330)
Description: Cell-based TGR5 assay, NCI-H716 cells endogenously expressing human TGR5, cAMP by HTRF. To be noted: 30 min at 37 C, 22 nM to 50 μM, read-out: pEC50 endogenously expressed TGR5 in NCI H716 (converted). The method in brief: as §1

In a further assay the target is T3, human IBAT (Homo sapiens, UniProt Q12908).
T3 construct: expressed in transfected cells; host or cells: HEK293
T3 sequence (Q12908 1-348): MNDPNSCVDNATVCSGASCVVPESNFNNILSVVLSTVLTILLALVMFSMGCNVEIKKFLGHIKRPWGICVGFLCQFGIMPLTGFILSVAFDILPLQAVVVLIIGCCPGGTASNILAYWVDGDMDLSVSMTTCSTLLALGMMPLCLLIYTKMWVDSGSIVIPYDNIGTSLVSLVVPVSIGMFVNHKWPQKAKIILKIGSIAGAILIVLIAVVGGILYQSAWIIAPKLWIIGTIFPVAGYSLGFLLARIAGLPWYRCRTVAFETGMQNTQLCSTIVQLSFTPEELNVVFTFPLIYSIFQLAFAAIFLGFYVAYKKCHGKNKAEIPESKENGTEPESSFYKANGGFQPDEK
In words: IBAT counter screen, [3H]taurocholic acid uptake in IBAT-transfected HEK293 cells. To be noted: for EC50: read-out: pEC50 human IBAT (converted). In kind it is cell-based. The procedure:
Following a 40-min incubation, the solution was removed, and the cells were washed twice with uptake buffer. Cells were lysed by addition of 20 μL 0.1% Tween 80 followed by 100 μL scintillation fluid and counted using a TopCount (Perkin Elmer).

As for `CC(C)(OCc1cc(Cl)ccc1Cl)C(=O)N1CCN(C2CC2)c2ccccc21` [Example 1, 1-(4-cyclopropyl-1,2,3,4-tetrahydroquinoxalin-1-yl)-2-[(2,5-dichlorophenyl)methoxy]-2-methylpropan-1-one], the EC50 is 0.126 to 1 µM on human TGR5, 0.126 to 1 µM in assay [1] and more than 25.1 µM on human IBAT.
Regarding `O=C(COc1cc(Cl)ccc1Cl)N1CCN(C2CC2)c2ccccc21` [Example 4, 1-(4-cyclopropyl-3,4-dihydroquinoxalin-1(2H)-yl)-2-(2,5-dichlorophenoxy)ethanone], the EC50 is 1.26 to 50.1 µM at human TGR5, more than 50.1 µM in assay [1] and more than 25.1 µM at human IBAT.
In the case of `O=C([C@@H]1C[C@H](O)CN1Cc1cc(Cl)ccc1Cl)N1CCN(C2CC2)c2ccccc21` [Example 6, (4-cyclopropyl-3,4-dihydroquinoxalin-1(2H)-yl)((2S,4S)-1-(2,5-dichlorobenzyl)-4-hydroxypyrrolidin-2-yl)methanone], the EC50 on human IBAT is more than 25.1 µM.
Turning to `O=C(N1CCN(C2CC2)c2ccccc21)C1(OCc2cc(Cl)ccc2Cl)CCCC1` [Example 8, (4-cyclopropyl-3,4-dihydroquinoxalin-1(2H)-yl)(1-(2,5 dichlorobenzyloxy)cyclopentyl)methanone], the values for the EC50 (at human TGR5; in assay [1]; at human IBAT) were less than 0.1 µM, 0.126 to 1 µM and more than 25.1 µM, respectively.
As to `O=C([C@@H]1CCCN1Cc1cc(Cl)ccc1Cl)N1CCCc2ccccc21` [Example 10, (S)-(1-(2,5-dichlorobenzyl)pyrrolidin-2-yl)(3,4-dihydroquinolin-1(2H)-yl)methanone], the EC50 at human IBAT is more than 25.1 µM.
For `O=C([C@@H]1CCCCN1Cc1cc(Cl)ccc1Cl)N1CCCc2ccccc21` [Example 11, (S)-(1-(2,5-dichlorobenzyl)piperidin-2-yl)(3,4-dihydroquinolin-1(2H)-yl)methanone], the EC50 at human TGR5 was 1.26 to 50.1 µM; in assay [1], 1.26 to 50.1 µM; at human IBAT it was more than 25.1 µM.
Take `O=C([C@@H]1CCCN1Cc1cc(Cl)ccc1Cl)N1CCN(C2CC2)c2ccccc21` [Example 12, (S)-(4-cyclopropyl-3,4-dihydroquinoxalin-1(2H)-yl)(1-(2,5-dichlorobenzyl)pyrrolidin-2-yl)methanone]: the EC50 on human IBAT is more than 25.1 µM.
As for `O=C([C@@H]1CCCCN1C(=O)c1cc(Cl)ccc1Cl)N1CCN(C2CC2)c2ccccc21` [Example 13, (S)-(2-(4-cyclopropyl-1,2,3,4-tetrahydroquinoxaline-1-carbonyl)piperidin-1-yl)(2,5-dichlorophenyl)methanone], the EC50 on human TGR5 was 1.26 to 50.1 µM; in assay [1], 1.26 to 50.1 µM; on human IBAT it was more than 25.1 µM.
Consider `O=C([C@@H]1CCCCN1Cc1cc(Cl)ccc1Cl)N1CCN(C2CC2)c2ccccc21` [Example 14, (S)-(4-cyclopropyl-3,4-dihydroquinoxaline-1(2H)-yl)(1-(2,5-dichlorobenzyl)piperidin-2-yl) methanone], for which, on human IBAT, the EC50 is more than 25.1 µM.
Consider `O=C([C@H]1CCCN1Cc1cc(Cl)ccc1Cl)N1CCN(C2CC2)c2ccccc21` [Example 15, (R)-(4-cyclopropyl-3,4-dihydroquinoxalin-1(2H)-yl)(1-(2,5-dichlorobenzyl)pyrrolidin-2-yl)methanone], for which the EC50 on human IBAT is more than 25.1 µM.
The same measure, in the same setting: the same measure for `O=C([C@H]1CCCCN1Cc1cc(Cl)ccc1Cl)N1CCN(C2CC2)c2ccccc21` [Example 16, (R)-(4-cyclopropyl-3,4-dihydroquinoxaline-1(2H)-yl)(1-(2,5-dichlorobenzyl)piperidin-2-yl) methanone]: more than 25.1 µM.
Turning to `O=C([C@@H]1CCCN1S(=O)(=O)c1cc(Cl)ccc1Cl)N1CCN(C2CC2)c2ccccc21` [Example 18], the EC50 on human TGR5 is 1.26 to 50.1 µM; in assay [1], 1.26 to 50.1 µM; at human IBAT, more than 25.1 µM.
On to `CC1(C)C[C@@H](C(=O)N2CCN(C3CC3)c3ccccc32)N(Cc2cc(Cl)ccc2Cl)C1` [Example 19, (S)-(4-cyclopropyl-3,4-dihydroquinoxaline-1 (2H)-yl)(1-(2,5-dichlorobenzyl)-4,4-dimethylpyrrolidin-2-yl)methanone], for which the EC50 on human TGR5 was 1.26 to 50.1 µM; in assay [1], 1.26 to 50.1 µM; on human IBAT, more than 25.1 µM.
As to `C[C@@]1(C(=O)N2CCN(C3CC3)c3ccccc32)CCCN1Cc1cc(Cl)ccc1Cl` [Example 20, (S)-(4-cyclopropyl-3,4-dihydroquinoxaline-1(2H)-yl)(1-(2,5-dichlorobenzyl)-2-methylpyrrolidin-2-yl)methanone], the EC50 on human IBAT was more than 25.1 µM.
Same read-out and setting: the same measure for `O=C([C@@H]1CSCCN1Cc1cc(Cl)ccc1Cl)N1CCN(C2CC2)c2ccccc21` [Example 22, (R)-(4-cyclopropyl-3,4-dihydroquinoxaline-1(2H)-yl)(4-(2,5-dichlorobenzyl)thiomorpholin-3-yl)methanone]: more than 25.1 µM; for `O=C([C@@H]1COCCN1Cc1cc(Cl)ccc1Cl)N1CCN(C2CC2)c2ccccc21` [Example 23, (S)-(4-cyclopropyl-3,4-dihydroquinoxaline-1(2H)-yl)(4-(2,5-dichlorobenzyl)morpholin-3-yl)methanone]: more than 25.1 µM.
On to `O=C([C@@H]1C2CC2CN1Cc1cc(Cl)ccc1Cl)N1CCN(C2CC2)c2ccccc21` (stereo partly drawn) [Example 24, (4-cyclopropyl-3,4-dihydroquinoxaline-1(2H)-yl)((2S)-3-(2,5-dichlorobenzyl)-3-azabicyclo[3.1.0]hexan-2-yl)methanone], for which the EC50 at human TGR5 is 1.26 to 50.1 µM; in assay [1], 1.26 to 50.1 µM; at human IBAT, more than 25.1 µM.
As for `O=C([C@@H]1CCC(=O)N1Cc1cc(Cl)ccc1Cl)N1CCN(C2CC2)c2ccccc21` [Example 25, (S)-5-(4-cyclopropyl-1,2,3,4-tetrahydroquinoxaline-1-carbonyl)-1-(2,5-dichlorobenzyl)pyrrolidin-2-one], the EC50 is 1.26 to 50.1 µM on human TGR5, 1.26 to 50.1 µM in assay [1] and more than 25.1 µM at human IBAT.
Regarding `CN(Cc1cc(Cl)ccc1Cl)C1(C(=O)N2CCN(C3CC3)c3ccccc32)CC1` [Example 27, (4-cyclopropyl-3,4-dihydroquinoxalin-1(2H)-yl)(1-((2,5-dichlorobenzyl)(methyl)amino)cyclopropyl)methanone], the figures for the EC50 (on human TGR5; in assay [1]; at human IBAT) were 0.126 to 1 µM, 1.26 to 50.1 µM and more than 25.1 µM, respectively.
For `O=C(N1CCN(C2CC2)c2ccccc21)N1CCCC1Cc1ccccc1Cl` (stereo not shown) [Example 28], in that order: 1.26 to 50.1 µM, 1.26 to 50.1 µM and more than 25.1 µM.
In the same order, the values of `O=C(C1=C(Oc2cc(Cl)ccc2Cl)CCCC1)N1CCN(C2CC2)c2ccccc21` [Example 29, (4-cyclopropyl-3,4-dihydroquinoxalin-1(2H)-yl)(2-(2,5-dichlorophenoxy)cyclohex-1-enyl)methanone] are less than 0.1 µM, 0.126 to 1 µM and more than 25.1 µM.
In the same order, the values of `CC(C)(COc1cc(Cl)ccc1Cl)C(=O)N1CCN(C2CC2)c2ccccc21` [Example 31, 1-(4-cyclopropyl-1,2,3,4-tetrahydroquinoxalin-1-yl)-3-(2,5-dichlorophenoxy)-2,2-dimethylpropan-1-one] are less than 0.1 µM, 0.126 to 1 µM and more than 25.1 µM.
As to `COc1ccccc1N(C)C(=O)C1(OCc2cc(Cl)ccc2Cl)CC1` [Example 36, 1-(2,5-dichlorobenzyloxy)-N-(2-methoxyphenyl)-N-methylcyclopropanecarboxamide], the EC50 at human TGR5 is less than 0.1 µM; in assay [1], 0.126 to 1 µM; on human IBAT, more than 25.1 µM.
For `COc1cccnc1N(C)C(=O)C1(OCc2cc(Cl)ccc2Cl)CC1` [Example 37, 1-(2,5-dichlorobenzyloxy)-N-(3-methoxypyridin-2-yl)-N-methylcyclopropanecarboxamide], in that order: 0.126 to 1 µM, 1.26 to 50.1 µM and more than 25.1 µM.
`C[C@H](CCC(=O)O)[C@H]1CC[C@H]2[C@@H]3[C@H](O)C[C@@H]4C[C@H](O)CC[C@]4(C)[C@H]3CC[C@]12C` [chenodeoxycholic acid, reference compound]: the “inhibition of uptake of [3H]taurocholic acid” value on human IBAT (IBAT-transfected HEK293 cells, potency similar to that reported by Craddock) was “inhibited uptake”.
